{"source": "patent US20200171065A1", "about": "“METHOD FOR TREATING LIVER DISEASE WITH KINSENOSIDE” (HUAZHONG UNIVERSITY OF SCIENCE AND TECHNOLOGY, priority 2017, published 2020)", "assay_type_in_all_cases": "in vivo", "key": {"[1]": {"system": "C57BL/6 mice with HFFD nonalcoholic fatty liver", "assay": "Nonalcoholic fatty liver induced by high-fat and high fructose diet (HFFD)", "description": "60 SPF male C57BL/6 mice aged 4 weeks were raised in the SPF experimental animal center of Tongji Medical College of Huazhong University of Science and Technology. They were provided with standard diet and drinking water. The room temperature was controlled at 23±2° C. After 7 days of adaptive feeding, the mice were randomly divided into a control group with normal diet and a high-fat and high fructose diet group (40% fat, 40% fructose, 20% protein, HFFD). […] The mice were fed according to the groups, and the control group and the model group were fed with the same dose of normal saline for 4 weeks. […] The development of nonalcoholic fatty liver disease is closely related to the lipid levels of the liver and serum."}, "[2]": {"system": "C57 mice with D-GalN/LPS acute liver failure", "assay": "Acute liver failure induced by D-GalN + LPS", "description": "60 SPF male C57 mice were purchased and raised in the SPF experimental animal center of Tongji Medical College of Huazhong University of Science and Technology. The mice were provided with standard diet and drinking water. The room temperature was controlled at 23±2° C. After 7 days of adaptive feeding, the mice were administered by intragastric administration. The mice were divided into a control group (administered with distilled water), a model group (administered with distilled water), a high dose group (KD-400 group, 400 mg/kg KD), a medium dose group (KD-200 group, 200 mg/kg KD) and a low dose group (KD-100 group, 100 mg/kg KD), ten mice each group. The mice were weighed the next day, and were continuously administered with above drugs respectively for 10 days. One hour after the last gavage, the mice were injected intraperitoneally (the control group was injected with the same amount of normal saline). The agent for the intraperitoneal injection was galactosamine (D-GalN, 500 mg/kg)+lipopolysaccharide (LPS, Eschericia coli 0111: B4, 5 ug/kg), all purchased from Sigma-Aldrich."}, "[3]": {"system": "C57 mice with MCD-induced NASH", "assay": "Nonalcoholic steatohepatitis induced by methionine choline deficiency (MCD) feed", "description": "150 SPF male mice C57 aged 6-8 weeks were raised in the SPF experimental animal center of Tongji Medical College of Huazhong University of Science and Technology. They were provided with standard diet and drinking water. The room temperature was controlled at 23±2° C. After 7 days of adaptive feeding, they were given drugs by intragastric administration. […] The control groups were administered with normal diet. The model group and each administration group were fed with methionine choline deficiency (MCD) feed. Each group was administrated by gavage. The control group and the model group were given equal amount of thrice steamed water once a day for 8 weeks. The mice were weighed every three days. The hair color, state, food, water and defecation of each group were observed, and the death of each group was recorded. At the end of the 2nd week, 4th week and 6th week, three mice were randomly selected and killed to observe the modeling state. At the end of the 8th week, after the last administration, all mice were provided with no food but water for 12 hours, and all indexes were measured."}, "[4]": {"system": "C57BL/6J mice with alcoholic fatty liver", "assay": "Alcoholic fatty liver (5% alcoholic Lieber-DeCarli liquid diet)", "description": "C57BL/6J mice aged 7-8 weeks were raised in the SPF experimental animal center of Tongji Medical College of Huazhong University of Science and Technology. They were provided with standard diet and drinking water. The room temperature was controlled at 23±2° C. After 7 days of adaptive feeding, they were given drugs by intragastric administration. […] The mice were fed with a 5% alcoholic Lieber-DeCarli liquid diet and developed alcoholic fatty liver disease. The mice were administered with alcohol and drugs. Spherically, drinking water were administered to the control group and the model group, and different doses were administered to the dose groups."}, "[5]": {"conditions": "low, medium and high dose of KD"}}, "note": "Entries after “also recorded” stand apart in the source; their conditions may differ."}
{"molecule": "O=C1C[C@@H](O[C@@H]2O[C@H](CO)[C@@H](O)[C@H](O)[C@H]2O)CO1", "note": "[KD]", "values": [{"measurement": "free fatty acid level in the serum", "setting": "[1]; each dose of KD", "result": "could significantly inhibit the level of free fatty acids; also recorded: could significantly inhibit the free fatty acid level in the serum"}, {"measurement": "triglyceride in the liver", "setting": "[1]; each dose of KD", "result": "could significantly inhibit the level of triglyceride in the liver"}, {"measurement": "expression level of total macrophage marker molecule F4/80", "setting": "[1]; high dose KD", "result": "inhibited the expression level of total macrophage marker molecule F4/80; also recorded: could inhibit the expression level of the total macrophage marker molecule F4/80"}, {"measurement": "liver lipid degeneration, size and number of lipid droplets (photos, H&E staining)", "setting": "[1]; high, middle and low dose groups, 4 weeks", "result": "could significantly reduce liver lipid denaturation induced by high-fat and high-fructose diet and reduce the size and number of lipid droplets in liver; also recorded: could significantly reduce the lipid degeneration and inhibit the size and number of lipid droplets"}, {"measurement": "secretion of anti-inflammatory cytokine IL-10 in serum", "setting": "[1]; [5]", "result": "promoted the secretion of the anti-inflammatory cytokine IL-10; also recorded: increase the secretion of anti-inflammatory cytokine IL-10"}, {"measurement": "secretion of proinflammatory cytokines IL-6, MCP-1, IFN-γ, TNF-α and IL-2 in serum", "setting": "[1]; [5]", "result": "significantly inhibited the secretion of pro-inflammatory cytokines IL6, MCP-1, IFN-γ, TNF-α and IL-2; also recorded: can significantly inhibit the secretion of proinflammatory cytokines IL-6, MCP-1, IFN-γ, TNF-α and IL-2"}, {"measurement": "total cholesterol in liver and serum", "setting": "[1]; low, medium and high doses of KD", "result": "significantly inhibited; also recorded: significantly reduced"}, {"measurement": "serum LDL level", "setting": "[1]; low-dose KD", "result": "could significantly inhibit the level of serum LDL in mice"}, {"measurement": "expression of COX-2 and M1-type macrophage molecules IL6 and IFN", "setting": "[1]; medium and high dose KD", "result": "significantly inhibited the expression level of inflammatory molecule COX-2; also recorded: could significantly inhibit the expression level of inflammatory molecule COX-2 and the inflammatory M1-type macrophage molecules IL6 and IFN"}, {"measurement": "expression of M2-type macrophage marker molecules CD206, ARG1 and IL1β", "setting": "[1]; medium and high dose KD", "result": "promoted the expression of anti-inflammatory M2-type macrophage marker molecules CD206, ARG1 and IL1; also recorded: promote the expression of anti-inflammatory M2-type macrophage marker molecules CD206, ARG1 and IL1β"}, {"measurement": "therapeutic effect on nonalcoholic fatty liver (overall, vs silymarin 50 mg/kg)", "setting": "[1]; mouse, in vivo", "result": "the therapeutic effect was better than that of silymarin; also recorded: significantly better than that of silymarin; also recorded: has a good therapeutic effect on non-alcoholic fatty liver"}, {"measurement": "bleeding and swelling of the liver (appearance)", "setting": "[2]; KD 100-400 mg/kg, 10 days, gavage, silymarin dose not given", "result": "can significantly improve the bleeding and swelling of the liver"}, {"measurement": "inflammatory cytokines TNF-α, IL-12p70, IFN-γ (flow cytometry kit)", "setting": "[2]; high, medium and low dose groups", "result": "had significant anti-inflammatory effect"}, {"measurement": "liver histopathological damage (H&E staining)", "setting": "[2]; high, middle and low KD dose groups", "result": "can reduce liver histopathological damage"}, {"measurement": "apoptotic marker proteins PARP and C-C3 (Western blot)", "setting": "[2]; high-dose group", "result": "could reduce abnormal apoptosis of hepatocytes; also recorded: could down regulate the apoptotic protein"}, {"measurement": "apoptosis of liver cells (Tunel fluorescence staining)", "setting": "[2]; mouse, in vivo", "result": "could inhibit abnormal apoptosis of the liver cells"}, {"measurement": "development of acute liver failure (overall)", "setting": "[2]; mouse, in vivo", "result": "can effectively prevent the development of acute liver failure and reduce liver damage"}, {"measurement": "endoplasmic reticulum stress, expansion and vesiculation", "setting": "[2]; mouse, in vivo", "result": "could down-regulate the process"}, {"measurement": "liver weight/body weight", "setting": "[2]; mouse, in vivo", "result": "could improve the weight gain of liver bleeding"}, {"measurement": "mitochondrial structure of the liver (transmission electron microscopy)", "setting": "[2]; mouse, in vivo", "result": "the mitochondrial structure of the liver of the mice was protected"}, {"measurement": "oxidative stress injuries (MDA, SOD)", "setting": "[2]; mouse, in vivo", "result": "protect the mice from the oxidative stress injuries"}, {"measurement": "lipid droplet area of sections (Image J), compared with the positive group", "setting": "[3]; 8 w, high-dose KD group", "result": "even better than that of the positive group"}, {"measurement": "liver fat accumulation (oil red O staining)", "setting": "[3]; 40, 20 and 10 mg/kg KD", "result": "Fat accumulation in liver was significantly reduced"}, {"measurement": "liver cell apoptosis / Cleaved Caspase3 (CC3) protein (immunohistochemical staining)", "setting": "[3]; KD group at different doses", "result": "could reduce the liver cell apoptosis to varying degrees, thus reducing the expression of liver CC3 protein"}, {"measurement": "expression of Bcl-2, Bax and Casp3 genes in liver (RT-qPCR)", "setting": "[3]; KD high-dose group", "result": "significantly increased the expression of anti-apoptotic gene Bcl-2, decreased the expression of pro-apoptotic gene Bax, reduced the expression of apoptotic marker gene Casp3"}, {"measurement": "fiber formation (Masson staining, fiber area)", "setting": "[3]; all the KD groups, 8 weeks", "result": "the liver fiber content decreased, and the effect of KD was even better than that of the positive drug group; also recorded: had inhibitory effect on the fiber formation"}, {"measurement": "liver coefficient (liver index)", "setting": "[3]; different doses of KD", "result": "could reduce liver fat and normalize the liver index; also recorded: reduce liver coefficient"}, {"measurement": "ALT and AST levels in the serum", "setting": "[3]; different doses of KD, 8 weeks", "result": "the AST and ALT levels were decreased in each dose group of KD; also recorded: could significantly reduce the ALT and AST levels in the serum"}, {"measurement": "expression of fibrotic marker protein α-SMA (Western blot, immunohistochemistry)", "setting": "[3]; each KD dose group", "result": "could reduce the expression of α-SMA; also recorded: could be reduced in each KD dose group"}, {"measurement": "lipid content", "setting": "[3]; each KD group", "result": "slightly increased"}, {"measurement": "serum HA and LN (ELISA)", "setting": "[3]; each dose group of KD", "result": "could significantly reduce the content of HA and LN; also recorded: could reduce the content of HA and LN in varying degrees"}, {"measurement": "expression of Bcl-xl and BAX proteins in liver (Western Blot)", "setting": "[3]; mouse, in vivo", "result": "the expression of anti-apoptotic protein Bcl-xl was increased, and the proapoptotic protein BAX was inhibited"}, {"measurement": "expression of MMP-13 in the liver (qPCR)", "setting": "[3]; mouse, in vivo", "result": "increase the expression of matrix metalloproteinase-13 (MMP-13)"}, {"measurement": "expression of pro-apoptotic and anti-apoptotic genes and proteins", "setting": "[3]; mouse, in vivo", "result": "could also reduce the expression of pro-apoptotic genes and proteins, and increase the expression of anti-apoptotic genes"}, {"measurement": "expression of α-SMA, Col I, TIMP-1 and TGF-β in the liver (qPCR)", "setting": "[3]; mouse, in vivo", "result": "could effectively inhibit the expression"}, {"measurement": "inflammatory infiltration of liver (HE staining)", "setting": "[3]; mouse, in vivo", "result": "could inhibit the inflammatory infiltration of liver"}, {"measurement": "oxidative stress (SOD, MDA in liver)", "setting": "[3]; mouse, in vivo", "result": "SOD content in the liver increased and oxidative product MDA decreased; also recorded: could reverse the oxidative stress injuries"}, {"measurement": "shear wave velocity / liver hardness (SWE)", "setting": "[3]; mouse, in vivo", "result": "the liver hardness of the KD group decreased; also recorded: could significantly reduce the shear wave velocity"}, {"measurement": "therapeutic effect on MCD-induced NASH (overall, vs silymarin and Fuzheng Huayu capsule)", "setting": "[3]; mouse, in vivo", "result": "dose-dependent, and its effect was similar to that of the drugs silymarin and Fuzheng Huayu capsule, and was better than that of the drugs in some indexes; also recorded: has a good therapeutic effect on MCD-induced NASH"}, {"measurement": "fat vacuoles / histopathological damage of liver (H&E staining)", "setting": "[4]; 40 and 20 mg/kg KD", "result": "could reduce histopathological damage of liver and reduce fat vacuoles in liver of mice; also recorded: fat vacuoles were reduced"}, {"measurement": "SOD activity in the liver / oxidative stress injuries", "setting": "[4]; AFL mice", "result": "increased the activity of superoxide dismutase (SOD) in the liver of AFL and ALF mice; also recorded: could reverse the oxidative stress injuries"}, {"measurement": "serum ALT", "setting": "[4]; AFL mice", "result": "decreased the serum alanine aminotransferase (ALT) of AFL and ALF mice"}, {"measurement": "secretion of TNF-α and IL-6", "setting": "[4]; high and medium dose groups", "result": "inhibited the secretion of TNF and IL6 in AFL and ALF; also recorded: reduced the secretion of the inflammatory cytokine TNF-α and IL-6"}, {"measurement": "therapeutic effect on alcoholic fatty liver (overall)", "setting": "[4]; mouse, in vivo", "result": "has a good therapeutic effect on alcoholic fatty liver and alcoholic liver fibrosis"}]}
